Laboratory results from the NIST ThermoML archive (doi:10.1021/je200673a).

Test: molar heat capacity at constant pressure
Conditions: 101.33 kPa, Vacuum adiabatic calorimetry

C(#Cc1ccccc1)c1ccccc1 [1,2-diphenylethyne]
molar heat capacity at constant pressure [J/K/mol]
Conditions	Crystal	Liquid
122.93 K	102.01	–
123.75 K	102.53	–
124.57 K	103.09	–
125.39 K	103.65	–
126.22 K	103.97	–
127.04 K	104.54	–
127.87 K	104.88	–
128.69 K	105.58	–
129.52 K	106.14	–
130 K	106.33	–
130.34 K	106.59	–
131.19 K	107.21	–
132.02 K	107.62	–
132.85 K	107.99	–
133.68 K	108.55	–
134.51 K	108.88	–
135.34 K	109.34	–
136.17 K	110.18	–
137.01 K	110.88	–
137.84 K	111.19	–
138.67 K	111.61	–
139.51 K	112.13	–
140 K	112.5	–
140.35 K	112.75	–
141.18 K	113.14	–
142.02 K	113.86	–
142.86 K	114.26	–
143.7 K	114.81	–
144.56 K	115.47	–
145.4 K	115.88	–
146.24 K	116.41	–
147.08 K	117.03	–
147.93 K	117.53	–
148.77 K	118.01	–
149.61 K	118.61	–
150 K	118.79	–
150.46 K	119.09	–
151.31 K	119.49	–
152.15 K	120.1	–
153 K	120.73	–
153.85 K	121.21	–
154.7 K	121.63	–
155.55 K	122.47	–
156.4 K	122.86	–
157.25 K	123.14	–
158.14 K	124.01	–
158.99 K	124.43	–
159.85 K	125.3	–
160 K	125.14	–
160.7 K	125.66	–
161.56 K	125.9	–
162.42 K	126.63	–
163.28 K	127.28	–
164.14 K	127.86	–
165 K	128.31	–
165.86 K	128.78	–
166.72 K	129.29	–
167.58 K	130.02	–
168.45 K	130.59	–
169.31 K	131.32	–
170 K	131.53	–
170.18 K	131.71	–
171.05 K	132.15	–
171.96 K	132.79	–
172.83 K	133.42	–
173.7 K	133.85	–
174.57 K	134.6	–
175.44 K	135.11	–
176.31 K	135.5	–
177.19 K	135.99	–
178.06 K	136.73	–
178.94 K	137.42	–
179.82 K	137.82	–
180 K	138	–
180.7 K	138.43	–
181.58 K	138.91	–
182.46 K	139.54	–
183.34 K	140.11	–
184.22 K	140.8	–
185.11 K	141.42	–
186.05 K	142.12	–
186.93 K	142.62	–
187.82 K	143.19	–
188.71 K	143.74	–
189.6 K	144.35	–
190 K	144.57	–
190.5 K	144.84	–
191.39 K	145.31	–
192.29 K	146.01	–
193.18 K	146.68	–
194.08 K	147.37	–
194.98 K	147.95	–
196.78 K	149.26	–
197.68 K	149.46	–
198.59 K	150.29	–
199.5 K	151.03	–
200 K	151.06	–
200.7 K	151.27	–
202.04 K	151.99	–
203.39 K	152.98	–
204.73 K	154.54	–
206.08 K	154.9	–
207.42 K	155.84	–
208.77 K	156.73	–
210 K	157.57	–
210.11 K	157.51	–
211.46 K	158.55	–
212.8 K	159.5	–
214.14 K	160.32	–
215.49 K	161.29	–
216.83 K	162.37	–
218.17 K	163	–
219.51 K	164.34	–
220 K	164.63	–
220.86 K	165.39	–
222.28 K	166.49	–
223.62 K	167.21	–
224.96 K	168.09	–
226.3 K	169.06	–
227.64 K	170.12	–
228.97 K	171	–
230 K	171.85	–
230.31 K	171.96	–
231.65 K	173.01	–
232.99 K	173.91	–
234.32 K	174.98	–
235.65 K	175.95	–
236.99 K	176.85	–
238.33 K	177.98	–
239.66 K	179.01	–
240 K	179.11	–
240.99 K	179.99	–
242.32 K	180.88	–
243.73 K	181.99	–
245.07 K	182.85	–
246.4 K	183.79	–
247.73 K	184.64	–
249.06 K	185.75	–
250 K	186.45	–
250.39 K	185.54	–
251.71 K	187.74	–
253.03 K	188.91	–
254.36 K	189.53	–
255.68 K	190.6	–
257 K	191.87	–
258.32 K	192.68	–
259.65 K	193.82	–
260 K	193.93	–
260.97 K	194.81	–
262.28 K	195.65	–
263.6 K	197.01	–
264.98 K	198.01	–
266.3 K	198.7	–
267.61 K	199.72	–
268.93 K	200.72	–
270 K	201.56	–
270.24 K	201.85	–
271.55 K	202.64	–
272.86 K	203.72	–
274.17 K	204.75	–
275.47 K	205.78	–
276.77 K	206.87	–
278.07 K	207.63	–
279.37 K	208.98	–
280 K	209.29	–
280.67 K	209.89	–
281.97 K	210.65	–
283.26 K	211.51	–
284.56 K	212.46	–
285.9 K	213.85	–
287.2 K	214.7	–
288.49 K	216.02	–
289.78 K	216.96	–
290 K	216.99	–
291.06 K	217.78	–
292.34 K	219.03	–
293.62 K	219.44	–
294.9 K	220.27	–
296.17 K	221.66	–
297.45 K	223.35	–
298.15 K	223.14	–
298.72 K	223.61	–
299.98 K	224.36	–
300 K	224.51	–
301.47 K	225.51	–
303.12 K	227.1	–
304.78 K	228.38	–
306.45 K	228.99	–
308.12 K	230.51	–
309.79 K	231.08	–
310 K	231.76	–
311.46 K	232.91	–
313.14 K	234.02	–
314.83 K	234.92	–
316.52 K	236.14	–
318.22 K	238.29	–
319.93 K	238.52	–
320 K	238.87	–
321.63 K	240.17	–
323.34 K	241.21	–
325.06 K	242.48	–
330 K	245.96	–
332.03 K	247.4	302
340 K	–	303.79
348.64 K	–	304.58
348.68 K	–	305.37
350 K	–	306.04
350.47 K	–	306.11
350.59 K	–	307.42
352.28 K	–	307.07
352.61 K	–	306.03
354.1 K	–	304.34
354.59 K	–	307.75
355.9 K	–	307.73
356.6 K	–	308.43
357.73 K	–	308.85
358.63 K	–	305.76
359.56 K	–	309.14
360 K	–	308.41
360.65 K	–	308.73
361.57 K	–	306.43
362.7 K	–	310.22
363.41 K	–	309.69
364.77 K	–	310.47
365.26 K	–	310.84
367.13 K	–	305.78
367.19 K	–	311.76
369.03 K	–	310.48
369.32 K	–	308.58
370 K	–	309.93
370.91 K	–	308.47
371.44 K	–	311.8
